Reference: the supplement of paper PMC11061612

Legend:
AZD8186 = compound: C[C@@H](Nc1cc(F)cc(F)c1)c1cc(C(=O)N(C)C)cc2c(=O)cc(N3CCOCC3)oc12 [AZD8186]; details: max 3 µM
Summary of the method: (§1)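 Cancer cell lines in 1536-well plates (7.5 μl DMEM/F12 or RPMI, 10% FBS) were held 24 hours at 37°C and 5% CO2 and then dosed for 72 hours at a final DMSO of typically 0.2%. Viability was taken from CellTiter-Glo 2.0 luminescence, scaled between blank-well and DMSO-well means. Curves were fitted as two-parameter logistic models with a non-linear mixed effects model, from which the single-agent IC50 was taken.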

Savolitinib = compound: C[C@@H](c1ccc2nccn2c1)n1nnc2ncc(-c3cnn(C)c3)nc21 [Savolitinib]; details: max 1 µM
Summary of the method: as §1

Prexasertib = compound: COc1cccc(OCCCN)c1-c1cc(Nc2cnc(C#N)cn2)n[nH]1 [Prexasertib]; details: max 1 µM
Summary of the method: as §1

AZD2811 = compound: CCN(CCO)CCCOc1ccc2c(Nc3cc(CC(=O)Nc4cccc(F)c4)[nH]n3)ncnc2c1 [AZD2811]; details: max 1 µM
Summary of the method: as §1

AZD5991 = compound: Cc1c2c(nn1C)CSCc1cc(n(C)n1)CSc1cc(c3ccccc3c1)OCCCc1c(C(=O)O)n(C)c3c-2c(Cl)ccc13 [AZD5991]; details: max 1 µM
Summary of the method: as §1

Selumetinib = compound: Cn1cnc2c(F)c(Nc3ccc(Br)cc3Cl)c(C(=O)NOCCO)cc21 [Selumetinib]; details: max 10 µM
Summary of the method: as §1

SG3199 = compound: CC1=CN2[C@@H](C1)C=NC3=CC(=C(C=C3C2=O)OC)OCCCCCOC4=C(C=C5C(=C4)N=C[C@@H]6CC(=CN6C5=O)C)OC [SG3199]; details: max 0.001 µM
Summary of the method: as §1

Crizotinib = compound: C[C@@H](Oc1cc(-c2cnn(C3CCNCC3)c2)cnc1N)c1c(Cl)ccc(F)c1Cl [Crizotinib]; details: max 10 µM
Summary of the method: as §1

AZD1390 = compound: CC(C)n1c(=O)n(C)c2cnc3cc(F)c(-c4ccc(OCCCN5CCCCC5)nc4)cc3c21 [AZD1390]; details: max 0.3 µM
Summary of the method: as §1

Gefitinib = compound: COc1cc2ncnc(Nc3ccc(F)c(Cl)c3)c2cc1OCCCN1CCOCC1 [Gefitinib]; details: max 10 µM
Summary of the method: as §1

SN-38 = compound: CCc1c2c(nc3ccc(O)cc13)-c1cc3c(c(=O)n1C2)COC(=O)[C@]3(O)CC [SN-38]; details: max 0.3 µM
Summary of the method: as §1

AZD5153 = compound: COc1nnc2ccc(N3CCC(c4ccc(OCCN5CCN(C)C(=O)[C@H]5C)cc4)CC3)nn12 [AZD5153]; details: max 1 µM
Summary of the method: as §1

Trametinib = compound: CC(=O)Nc1cccc(-n2c(=O)n(C3CC3)c(=O)c3c(Nc4ccc(I)cc4F)n(C)c(=O)c(C)c32)c1 [Trametinib]; details: max 1 µM
Summary of the method: as §1

Dasatinib = compound: CC1=C(C(=CC=C1)Cl)NC(=O)C2=CN=C(S2)NC3=CC(=NC(=N3)C)N4CCN(CC4)CCO [Dasatinib]; details: max 2 µM
Summary of the method: as §1

AZD1775 = compound: C=CCn1c(=O)c2cnc(Nc3ccc(N4CCN(C)CC4)cc3)nc2n1-c1cccc(C(C)(C)O)n1 [AZD1775]; details: max 3 µM
Summary of the method: as §1

Alisertib = compound: COc1cc(Nc2ncc3c(n2)-c2ccc(Cl)cc2C(c2c(F)cccc2OC)=NC3)ccc1C(=O)O [Alisertib]; details: max 10 µM
Summary of the method: as §1

Taselisib = compound: Cc1nc(-c2cn3c(n2)-c2ccc(-c4cnn(C(C)(C)C(N)=O)c4)cc2OCC3)n(C(C)C)n1 [Taselisib]; details: max 10 µM
Summary of the method: as §1

Capivasertib = compound: C1CN(CCC1(C(=O)N[C@@H](CCO)C2=CC=C(C=C2)Cl)N)C3=NC=NC4=C3C=CN4 [Capivasertib]; details: max 10 µM
Summary of the method: as §1

Palbociclib = compound: CC(=O)c1c(C)c2cnc(Nc3ccc(N4CCNCC4)cn3)nc2n(C2CCCC2)c1=O [Palbociclib]; details: max 10 µM
Summary of the method: as §1

AZD6738 = compound: C[C@@H]1COCCN1C2=NC(=NC(=C2)C3(CC3)[S@](=N)(=O)C)C4=C5C=CNC5=NC=C4 [AZD6738]; details: max 10 µM
Summary of the method: as §1

AZD4320 = compound: CN(CC[C@H](CSC1=CC=CC=C1)NC2=C(C=C(C=C2)S(=O)(=O)NC(=O)C3=CC=C(C=C3)N4CCC(CC4)[C@H](C5=CC=CC=C5C6=CC=C(C=C6)Cl)O)S(=O)(=O)C(F)(F)F)CCO [AZD4320]; details: max 1 µM
Summary of the method: as §1

AZD7648 = compound: Cc1cc2ncnn2cc1Nc1ncc2c(n1)n(C1CCOCC1)c(=O)n2C [AZD7648]; details: max 10 µM
Summary of the method: as §1

Olaparib = compound: O=C(c1cc(Cc2n[nH]c(=O)c3ccccc23)ccc1F)N1CCN(C(=O)C2CC2)CC1 [Olaparib]; details: max 10 µM
Summary of the method: as §1

Venetoclax = compound: CC1(C)CCC(CN2CCN(c3ccc(C(=O)NS(=O)(=O)c4ccc(NCC5CCOCC5)c([N+](=O)[O-])c4)c(Oc4cnc5[nH]ccc5c4)c3)CC2)=C(c2ccc(Cl)cc2)C1 [Venetoclax]; details: max 1 µM
Summary of the method: as §1

AZD0156 = compound: CN(C)CCCOc1ccc(-c2ccc3ncc4c(c3c2)n(C2CCOCC2)c(=O)n4C)cn1 [AZD0156]; details: max 3 µM
Summary of the method: as §1

Doxorubicin = compound: COc1cccc2c1C(=O)c1c(O)c3c(c(O)c1C2=O)C[C@@](O)(C(=O)CO)C[C@@H]3O[C@H]1C[C@H](N)[C@H](O)[C@H](C)O1 [Doxorubicin]; details: max 1 µM
Summary of the method: as §1

Lapatinib = compound: CS(=O)(=O)CCNCc1ccc(-c2ccc3ncnc(Nc4ccc(OCc5cccc(F)c5)c(Cl)c4)c3c2)o1 [Lapatinib]; details: max 10 µM
Summary of the method: as §1

Cell Line	IC50, cell viability 72 h (AZD8186) [µM]	IC50, cell viability 72 h (Savolitinib) [µM]	IC50, cell viability 72 h (Prexasertib) [µM]	IC50, cell viability 72 h (AZD2811) [µM]	IC50, cell viability 72 h (AZD5991) [µM]	IC50, cell viability 72 h (Selumetinib) [µM]	IC50, cell viability 72 h (SG3199) [µM]	IC50, cell viability 72 h (Crizotinib) [µM]	IC50, cell viability 72 h (AZD1390) [µM]	IC50, cell viability 72 h (Gefitinib) [µM]	IC50, cell viability 72 h (SN-38) [µM]	IC50, cell viability 72 h (AZD5153) [µM]	IC50, cell viability 72 h (Trametinib) [µM]	IC50, cell viability 72 h (Dasatinib) [µM]	IC50, cell viability 72 h (AZD1775) [µM]	IC50, cell viability 72 h (Alisertib) [µM]	IC50, cell viability 72 h (Taselisib) [µM]	IC50, cell viability 72 h (Capivasertib) [µM]	IC50, cell viability 72 h (Palbociclib) [µM]	IC50, cell viability 72 h (AZD6738) [µM]	IC50, cell viability 72 h (AZD4320) [µM]	IC50, cell viability 72 h (AZD7648) [µM]	IC50, cell viability 72 h (Olaparib) [µM]	IC50, cell viability 72 h (Venetoclax) [µM]	IC50, cell viability 72 h (AZD0156) [µM]	IC50, cell viability 72 h (Doxorubicin) [µM]	IC50, cell viability 72 h (Lapatinib) [µM]
23132-87 (Gastric Carcinoma)	> 3	> 1	0.0326	> 1	0.348	> 10	> 0.001	> 10	> 0.3	> 10	0.0221	> 1	> 1	> 2	0.375	> 10	> 10	> 10	> 10	4.79	> 1	> 10	> 10	> 1	> 3	0.369	> 10
CAL-120 (Breast Carcinoma)	> 3	> 1	0.656	> 1	> 1	> 10	> 0.001	> 10	> 0.3	> 10	0.296	> 1	> 1	> 2	1.62	> 10	> 10	> 10	> 10	> 10	0.825	> 10	> 10	> 1	> 3	> 1	> 10
FADU (Head and Neck Carcinoma)	> 3	> 1	0.0791	> 1	0.407	> 10	> 0.001	> 10	> 0.3	9.02	0.0063	> 1	> 1	> 2	> 3	> 10	3.32	> 10	> 10	> 10	> 1	> 10	> 10	> 1	> 3	0.312	3.16
GB-1 (Glioblastoma)	> 3	> 1	0.951	> 1	> 1	> 10	> 0.001	> 10	> 0.3	> 10	0.0327	> 1	> 1	> 2	> 3	> 10	9.75	> 10	> 10	> 10	> 1	> 10	> 10	> 1	> 3	> 1	> 10
GP5d (Colorectal Carcinoma)	> 3	> 1	0.0233	0.764	0.329	0.34	> 0.001	6.99	> 0.3	> 10	0.073	0.168	0.0174	> 2	0.542	5.02	0.254	1.5	> 10	3.64	> 1	> 10	> 10	> 1	> 3	0.552	> 10
HCT-15 (Colorectal Carcinoma)	> 3	> 1	0.139	> 1	> 1	> 10	> 0.001	7.41	> 0.3	> 10	0.0535	0.227	> 1	1.73	0.544	4.21	3.86	> 10	> 10	4	> 1	> 10	> 10	> 1	> 3	0.619	> 10
